Laboratory results from EPA's ToxValDB 9.5 (doi:10.2903/j.efsa.2008.118r).
In brackets after ≈: the same amount, converted by molar mass.

What was measured:
Tagia sp. = conditions: acute; duration: 14 days; mortality
Typhlodromus pyri = conditions: acute
Canidae = conditions: chronic; duration: 1 years; oral; M/F; Dog Other; histopathology: nonneoplastic
Coturnix japonica = conditions: acute, oral, mortality
Daphnia magna = conditions: chronic/long-term; duration: 21 days; reproduction
Apis mellifera = conditions: acute; duration: 48 hours; oral; unspecified; mortality
Colinus virginianus = conditions: reproduction developmental
Oncorhynchus mykiss = conditions: acute; duration: 96 hours; mortality

## c1coc(-c2nc3ccccc3[nH]2)c1 [Fuberidazole]
Tagia sp.
  LC50: > 1000 mg/kg
Typhlodromus pyri; duration: 7 days, mortality
  LEL: 26 g/ha
Typhlodromus pyri; duration: 14 days, reproduction
  LEL: 26 g/ha
Canidae
  NOAEL: 0.72 mg/kg-day
Coturnix japonica; diet
  LC50: > 930 mg/kg-day
Coturnix japonica
  LD50: > 750 mg/kg
Daphnia magna
  NOEC: 0.12 mg/L
Rattus norvegicus; acute, mortality
  LD50: > 300 mg/kg
Rattus norvegicus; developmental, development
  NOAEL: 8 mg/kg-day
Rattus norvegicus; reproduction developmental, mortality
  NOAEL: 4 mg/kg-day
Apis mellifera
  LD50: > 187 µg/piece
Colinus virginianus
  NOEC: > 76.9 mg/kg-day
Oncorhynchus mykiss
  LC50: 0.91 µg/mL (≈ 4.94 µM)
